Patent publication US12246022B2, “Compositions and methods for treating, preventing or reversing age associated inflammation and disorders” (BROWN UNIVERSITY, priority 2019, dated 2025)
Where two headings read alike, the source gives them in different places.

Experiments:
IFN-I response = IFN-I response in senescent and 3X human fibroblasts (RT-qPCR, ELISA, immunoblotting); assay type: cell-based; settings: LF1 and IMR90, 5 μM
Description: (§1) To obtain replicatively senescent (RS) cells, LF1 cultures were serially propagated until proliferation ceased. At each passage, after reaching 80% confluence cells were trypsinized and diluted 1:4. […] In early passage cultures, the time between passages is constant at approximately 3 days. […] At this point, after reaching 80% confluence, the cells were replated at 1:2 dilution, and this time was designated as the last passage (point A in FIG. 2A). […] Under this experimental regimen, the majority of the cells in the culture enter senescence within a 3-4 weeks window centered roughly around the time of last passage (grey bar in FIG. 2A). At point B (4 weeks), the cultures were trypsinized and replated as described^60 to eliminate a small fraction of persisting contact-inhibited cells. Cultures were again replated at point C (8 weeks).
Oncogene-induced senescence (OIS) was elicited by infecting proliferating LF1 cells with pLenti CMV RasV12 Neo (Addgene plasmid #22259). Generation of lentiviral particles and the infection procedure are described below. At the end of the infection, cells were reseeded at 15-20% confluency and selected with G418 (250 μg/ml) maintained continuously until the end of the experiment Medium was changed every 3 days until the cultures were harvested at the indicated time points. Stress-induced premature senescence (SIPS) was elicited by […] irradiation with 20 Gy given at a rate of 87 cGy/min in one fraction using a cesium-137 gamma source (Nordion Gammacell 40). Cells were 15-20% confluent at the time of irradiation. Medium was changed immediately after irradiation, and at 3-day intervals thereafter. […]
The ABI ViiA 7 instrument (Applied Biosystems) was used for all experiments. qPCR of DNA was performed using the TaqMan system (Applied Biosystems) as described by Coufal et al. (2009).^64 […] of purified genomic DNA was used with the indicated primers (see Table 1). […] Effectiveness of the DNase digestion was assessed using controls that omitted the RT enzyme. […]

L1HS sequences = assay: L1 sequence abundance (copy number) by TaqMan qPCR in senescent fibroblasts; assay type: cell-based, human; settings: LF1, IMR90, W138 fibroblasts, 5 μM in medium, 4 months in senescence
Protocol: The ABI ViiA 7 instrument (Applied Biosystems) was used for all experiments. qPCR of DNA was performed using the TaqMan system (Applied Biosystems) as described by Coufal et al. (2009).^64 […] of purified genomic DNA was used with the indicated primers (see Table 1). Reverse transcription qPCR (RT-qPCR) of RNA was performed using the SYBR Green system (Applied Biosystems). Polyadenylated RNA was used in all experiments assessing transcription of L1 elements, and total RNA was used for all other genes. Total RNA was harvested using the Trizol reagent (Invitrogen). Poly(A) RNA was isolated from total RNA using the NEBNext Poly(A) mRNA Magnetic Isolation Module (New England Biolabs). […] Effectiveness of the DNase digestion was assessed using controls that omitted the RT enzyme.
Primer sets 1 to 5 (Table 1, amplicons A to E in FIG. 1B) to human L1 were designed to preferentially amplify elements of the human-specific L1 HS and evolutionarily recent primate-specific L1 PA(2-6) subfamilies, as follows. […] Sequences of primers corresponding to a consensus of all the murine IFN alpha family genes, as well as to the IFNB1 gene, were obtained from the publication by Gautier et al.^71 For quantifying relative L1 genomic copy number (human cells), the TaqMan multiplex method developed by Coufal et al. (2009)^72 was used. […]

SASP response = assay: Senescence entry and SASP gene expression in human fibroblasts (RT-qPCR); assay type: cell-based; settings: LF1, 5 μM
Description: as §1
The ABI ViiA 7 instrument (Applied Biosystems) was used for all experiments. qPCR of DNA was performed using the TaqMan system (Applied Biosystems) as described by Coufal et al. (2009).^64 […] of purified genomic DNA was used with the indicated primers (see Table 1). Reverse transcription qPCR (RT-qPCR) of RNA was performed using the SYBR Green system (Applied Biosystems). […] Effectiveness of the DNase digestion was assessed using controls that omitted the RT enzyme.

[1] = Table 13 Comparative Studies; cited from earlier work
[2] = human plasma PK, oral dose 0.5-30 mg; cited from earlier work
HIV WT = settings: Grobler et al. 2019; read-out: HIV WT IC50; cited from earlier work
human LINE-1 [3] = assay: Human LINE-1 retrotransposition assay, related experiments with islatravir (pYX017, HeLa cells, Tables 12 and 13); assay type: cell-based; settings: for IC50: Homo sapiens
Protocol: In related experiments, islatravir and other compounds were tested for inhibition of retrotransposition activity of human LINE-1 in HeLa cells according to the following procedure.
HeLa cervical cancer cells were cultivated at 37° C. in a humidified 5% CO2 incubator in Dulbecco's Modified Eagle's Medium (DMEM)—high glucose, with 4500 mg/L glucose, L-glutamine, sodium pyruvate and sodium bicarbonate (Sigma), supplemented with 10% of heat inactivated fetal bovine serum (Thermo Fisher).
Assays were performed using reporter plasmid pYX017 as described (Xie, et al., 2011) with several modifications. The reporter assay was performed in 96-well white optical bottom plates. HeLa cells were seeded in wells 24 h prior to transfection and compound treatment so that cells were approximately 30% confluent on the day of transfection. Different cell plating densities were tested and a density of 2×10^3 cells was determined to be optimal.
Compounds were resuspended in DMSO. Serial dilutions (1:3) were prepared in DMSO. Medium containing different concentrations of the compounds were prepared by adding 2 μl of the compound dilution to 1 ml of the culture medium. The final concentration of DMSO in the medium was 0.2%.
FuGENE® HD transfection reagent (Promega, E2311, Lot 382574 and Lot 397842) was used to transfect the plasmids into the cells. The transfection reagent: DNA mixture was prepared in OpiMEM (Thermo Fisher) according to manufacturer's instructions. Different ratios of transfection reagent to DNA were tested and a ratio of 3:1 was determined to be optimal. Culture medium was removed from the cells and discarded. The transfection reagent: DNA mixture (5 μl) was mixed with the compound containing medium (100 μl/well) and this was added onto the cells of each well. Cells were incubated at 37° C./5% CO2 for different incubation time. A 72 h incubation time was determined to be optimal.
Luciferase reporter activity was quantified with the Dual-Luciferase® Reporter Assay System (Promega) according to manufacturer's instructions for multiwell plates except that cells were lysed directly on the multiwell plate with 30 μl of the passive lysis buffer (PLB) for 20 min at room temperature, with gentle shaking to ensure complete cell lysis.
Firefly and Renilla luciferase signals were measured using a SpectraMax i3x Multi-Mode Microplate Reader. Integration times of 100 ms and 10 ms were used to measure the Firefly and Renilla signals respectively. Relative L1 activity is calculated as Firefly/Renilla *1000 or Firefly/Renilla *10,000. Dose response inhibition data were fit to a four parameter logistic equation using non-linear regression (using Graphpad Prism 8), to determine IC50 values for each inhibitor.

human LINE-1 [4] = assay: Islatravir Inhibitory Quotient (IQ) estimate for human LINE-1 in PBMC and brain; settings: for Human LINE-1 IQ C168 hr, PBMC, single dose / Human LINE-1 IQ Cavg (ss), PBMC, q.d.: EFdA-TP EC50 = 316 nM; for Human LINE-1 IQ C168 hr, Brain, single dose / Human LINE-1 IQ Cavg (ss), Brain, q.d.: assume Br./plasma = 0.25
[5] = cited from earlier work
[6] = daily dose of 2 mg, steady state

For `Nc1ncnc2c1ncn2CCOCP(=O)(O)O` [Adefovir], the “interferon gene expression (IFN-α, IFN-β1) in senescent cells” value (IFN-I response) was “significantly reduced”, the “senescence-induced increase of L1 copy number” value (L1HS sequences) was “significantly prevented this increase” and the “SASP gene expression (IL-6, MMP3) in senescent cells” value (SASP response) was “significantly decreased”.

For `C#C[C@]1(CO)O[C@@H](n2cnc3c(N)nc(F)nc32)C[C@@H]1O` [Islatravir, 2′-deoxy-4′-ethynyl-2-fluoroadenosine], the huCSF/Plasma [1] is listed as 0.25, the oral clearance [2] is listed as 31 to 45 L/h and the IC50 (HIV WT) is listed as 0.2 nM. For the same compound, the “human LINE-1 inhibitor activity compared to the other reverse transcriptase inhibitory drugs tested” value (human LINE-1 [3]; HeLa cells) was “unexpectedly better human LINE-1 inhibitor activity”, the IC50 (human LINE-1 [3]; HeLa, Table 13 Comparative Studies, read-out: Human Line-1 IC50) was 5 nM and the IC50 (human LINE-1 [3]; HeLa, see Table 12, read-out: in vitro IC50 for human LINE-1 in cell-based assay) was 1.29 nM. For the same compound, the IC50 (human LINE-1 [3]; HeLa cells, pYX017, 72 h, n = 3, read-out: Human LINE-1 IC50, Average) was 1.29 nM, the IC50 (human LINE-1 [3]; HeLa cells, pYX017, 72 h, read-out: Human LINE-1 IC50, Exp. 3) was 1.4 nM and the IC50 (human LINE-1 [3]; HeLa cells, pYX017, 72 h, read-out: Human LINE-1 IC50, Exp.2) was 1.18 nM. For the same compound, the “Human LINE-1 IQ C168 hr, PBMC, single dose” value (from here on “Human LINE-1 IQ C168 hr, PBMC”) (human LINE-1 [4]; Dose 0.5 mg) was 1.84, the “Human LINE-1 IQ Cavg (ss), PBMC, q.d.” value (human LINE-1 [4]; Dose 0.5 mg) was 23.41 and the “Human LINE-1 IQ C168 hr, Brain, single dose” value (“Human LINE-1 IQ C168 hr, Brain” below) (human LINE-1 [4]; Dose 0.5 mg) was 0.46. For the same compound, the “Human LINE-1 IQ Cavg (ss), Brain, q.d.” value (human LINE-1 [4]; Dose 0.5 mg) was 5.85, the “Human LINE-1 IQ C168 hr, PBMC” value (human LINE-1 [4]; Dose 1 mg) was 2.61 and the “Human LINE-1 IQ Cavg (ss), PBMC, q.d.” value (human LINE-1 [4]; Dose 1 mg) was 39.79. For the same compound, the “Human LINE-1 IQ C168 hr, Brain” value (human LINE-1 [4]; Dose 1 mg) was 0.66, the “Human LINE-1 IQ Cavg (ss), Brain, q.d.” value (human LINE-1 [4]; Dose 1 mg) was 9.95 and the “Human LINE-1 IQ C168 hr, PBMC” value (human LINE-1 [4]; Dose 2 mg) was 3.00. The “Human LINE-1 IQ Cavg (ss), PBMC, q.d.” value (human LINE-1 [4]; Dose 2 mg) was 50.54, the “Human LINE-1 IQ C168 hr, Brain” value (human LINE-1 [4]; Dose 2 mg) was 0.75 and the “Human LINE-1 IQ Cavg (ss), Brain, q.d.” value (human LINE-1 [4]; Dose 2 mg) was 12.64. The “Human LINE-1 IQ C168 hr, PBMC” value (human LINE-1 [4]; Dose 10 mg) was 15.64, the “Human LINE-1 IQ Cavg (ss), PBMC, q.d.” value (human LINE-1 [4]; Dose 10 mg) was 295.15 and the “Human LINE-1 IQ C168 hr, Brain” value (human LINE-1 [4]; Dose 10 mg) was 3.92. The “Human LINE-1 IQ Cavg (ss), Brain, q.d.” value (human LINE-1 [4]; Dose 10 mg) was 73.79, the “Human LINE-1 IQ C168 hr, PBMC” value (human LINE-1 [4]; Dose 30 mg) was 76.88 and the “Human LINE-1 IQ Cavg (ss), PBMC, q.d.” value (human LINE-1 [4]; Dose 30 mg) was 915.31. The “Human LINE-1 IQ C168 hr, Brain” value (human LINE-1 [4]; Dose 30 mg) was 19.22, the “Human LINE-1 IQ Cavg (ss), Brain, q.d.” value (human LINE-1 [4]; Dose 30 mg) was 228.83 and the “IQ for human LINE-1 in PBMCs” value (human LINE-1 [4]; [6]) was 51. The “IQ for human LINE-1 in brain” value (human LINE-1 [4]; [6]) was 13, the “Plasma-Brain Kapp” value ([5]; non-human primate) was 0.25 and the “blood brain barrier penetration” value ([5]; single oral doses, Rhesus macaque) was “penetrated the blood brain barrier (BBB)”.
